Source: patent US20090214578A1, “Immunostimulatory Single-Stranded Ribonucleic Acid with Phosphodiester Backbone” (priority 2005, published 2009)
Strand notation (5' to 3'): a small letter for the sugar, then the base; units joined by * are phosphorothioate-linked, units joined directly phosphodiester-linked; [ ] holds rarer units or linkages, { } end groups; capitals alone tell only the bases. r = 2'-OH (RNA)

Legend:
murine cells [1] = experiment: Stimulatory capacity of ORN with PTO or PD backbone in murine cells; type: cell-based; settings: TLR7-independent fashion
Excerpt: (§1) To further investigate the role of TLR9 in the recognition of PD ssRNA, various RNA sequences, such as RNA41 (5′-[…]-3′; SEQ ID NO:4) and RNA42 (5′-[…]-3′; SEQ ID NO:5) that have been previously described as not active in murine cells when synthesized with a PTO backbone (Heil, Hemmi et al. 2004), were synthesized.

human PBMCs = experiment: Stimulatory capacity of ORN with PTO or PD backbone in human PBMCs; type: cell-based
Excerpt: as §1

TLR9-deficient mDC = experiment: IL-12p40 production by TLR9-deficient mDC; type: cell-based, murine
Excerpt: as §1

pDC, wild-type cells = experiment: Recognition of ssRNA by pDC, wild-type cells; type: cell-based, murine; settings: for Recognition by pDC: wild-type cells
Excerpt: as §1

[2] = tested on: pDC, TLR7-single deficient cells; experiment: Recognition of ssRNA by pDC, TLR7-single deficient cells; type: cell-based, murine
Excerpt: as §1

[3] = tested on: pDC, TLR9-single deficient cells; experiment: Recognition of ssRNA by pDC, TLR9-single deficient cells; type: cell-based, murine
Excerpt: as §1

[4] = tested on: Wild-type FLT3-L-induced DCs; experiment: IL-12 secretion of siRNA-treated wild-type FLT3-L-induced DCs on ssRNA stimulation; type: cell-based, murine; settings: wild-type FLT3-L-induced DCs treated with mTLR8-specific siRNA; for reduction in IL-12 secretion in mTLR8-specific siRNA-treated cells: then stimulated with the ORN
Excerpt: (§2) The reduction in RNA63-driven immune activation correlated with siRNA-driven downregulation of mTLR8 RNA.

murine cells [5] = settings: synthesized with a PTO backbone; Heil, Hemmi et al. 2004; cited from earlier work
[6] = tested on: TLR3/TLR7 double deficient FLT3-L-induced DCs; experiment: ssRNA stimulation of TLR3/TLR7 double deficient FLT3-L-induced DCs; type: cell-based, mice
Excerpt: (§3) Since the ssRNA-driven TLR7-independent immune stimulation is dependent on MyD88 and endosomal maturation, it was hypothesized that other intracellular TLRs are involved. TLR3 seems a poor candidate for the recognition of ssRNA since it mainly relies on the adaptor molecule TRIF and not MyD88 (Hoebe, Du et al. 2003). Nevertheless, to rule out TLR3 as receptor for ssRNA, TLR3- and TLR7-deficient mice were crossed to obtain TLR3/TLR7 double deficient mice, and immune cells from these mice were tested for ssRNA stimulation. […] TLR7/TLR9 double deficient mice were also generated to investigate the involvement of TLR9 in RNA63 recognition.

[7] = tested on: TLR7/TLR9 double deficient GM-CSF-derived DCs; experiment: ssRNA stimulation of TLR7/TLR9 double deficient GM-CSF-derived DCs; type: cell-based, mice
Excerpt: as §3

[8] = tested on: TLR7/TLR9 double deficient sorted mDCs; experiment: ssRNA stimulation of TLR7/TLR9 double deficient sorted mDCs; type: cell-based, mice
Excerpt: as §3

[9] = tested on: TLR7-deficient FLT3-L-induced DCs; experiment: RNA63-induced activation of siRNA-transfected TLR7-deficient FLT3-L-induced DCs; type: cell-based, murine
Excerpt: as §2

[10] = tested on: peripheral blood mononuclear cells from wild-type mice; experiment: IL-12p40 ELISA on supernatants of peripheral blood mononuclear cells, wild-type mice; type: cell-based; settings: added with DOTAP, 24 hours, FIG. 2
Protocol: (§4) Peripheral blood mononuclear cells were isolated from wild-type and TLR7−/− mice, transferred into suitable growth medium, and then aliquoted separately into individual wells of multiwell culture plates. The following agents were added to individual wells of cells: RNA63 PD, a single-stranded ORN having a nucleotide sequence provided as 5′-CAGGUCUGUGAU-3′ (SEQ ID NO:1), in which all internucleotide linkages are phosphodiester except for a phosphorothioate linkage between the A and U at the 3′ end of the ORN; RNA63 PTO, a single-stranded ORN having the same nucleotide sequence as SEQ ID NO: 1, in which every internucleotide linkage is phosphorothioate; CpG-ODN 1668, an oligodeoxynucleotide having a nucleotide sequence provided as 5′-[…]-3′ (SEQ ID NO:2); DOTAP alone; R-848; RNA63 PTO plus DOTAP; RNA63 PD plus DOTAP; and medium alone. Cells were maintained in culture for 24 hours, and then supernatants from individual wells collected and analyzed using enzyme-linked immunosorbent assay (ELISA) specific for IL-12p40. Data are presented as mean±SEM.

[11] = tested on: peripheral blood mononuclear cells from TLR7−/− mice; experiment: IL-12p40 ELISA on supernatants of peripheral blood mononuclear cells, TLR7−/− mice; type: cell-based; settings: TLR 7−/− cells, added with DOTAP, 24 hours, FIG. 2
Protocol: as §4

[12] = tested on: wild-type FLT3-L-induced dendritic cells; experiment: Cytokine ELISA (IL-12p40, IL-6, IFN-α), FLT3-L-induced dendritic cells, wild-type; type: cell-based, mice; settings: with DOTAP, 24 hours; for IL-12p40 induction: FIG. 3A; for IL-6 induction: FIG. 3B; for IFN-α induction: FIG. 3C
Protocol: (§5) FLT3-L-induced dendritic cells were prepared from wild-type and TLR7−/− mice and cultured in the presence of varied amounts of RNA63 PD or RNA63 PTO, each with DOTAP. After 24 hours incubation, supernatants were collected and analyzed by ELISA for IL-12p40, IL-6, and IFN-α. LPS, R-848, CpG-ODN 1668, CpG-ODN 2216 (5′-GGGGGACGATCGTCGGGGG-3′, SEQ ID NO:3), DOTAP alone, and medium alone were run as controls. Data are presented as mean±SEM.

[13] = tested on: TLR7−/− FLT3-L-induced dendritic cells; experiment: Cytokine ELISA (IL-12p40, IL-6, IFN-α), FLT3-L-induced dendritic cells, TLR7−/−; type: cell-based, mice; settings: for IFN-α induction / IL-6 induction / IL-12p40 induction: with DOTAP, 24 hours
Protocol: as §5

[14] = tested on: wild-type FLT3-L-induced dendritic cells; experiment: FACS for CD69 on FLT3-L-induced dendritic cells, wild-type; type: cell-based, mice; settings: with DOTAP, 24 hours, FIG. 4
Protocol: (§6) FLT3-L-induced dendritic cells were prepared from wild-type and TLR7−/− mice and cultured for 24 hours in the presence of RNA63 PD or RNA63 PTO, each with DOTAP, as in Example 2. After 24 hours incubation, cells were collected and analyzed by FACS for CD69.

[15] = tested on: TLR7−/− FLT3-L-induced dendritic cells; experiment: FACS for CD69 on FLT3-L-induced dendritic cells, TLR7−/−; type: cell-based, mice; settings: with DOTAP, 24 hours, FIG. 4
Protocol: as §6

[16] = tested on: M-CSF-derived macrophages from wild-type mice; experiment: IL-12p40 ELISA, M-CSF-derived macrophages, wild-type; type: cell-based; settings: with DOTAP, 24 hours, FIG. 5
Protocol: (§7) M-CSF-derived macrophages and GM-CSF-derived dendritic cells were prepared from wild-type and TLR7−/− mice and cultured for 24 hours in the presence of RNA63 PD plus DOTAP, RNA63 PTO plus DOTAP. LPS, R-848, CpG-ODN 1668, CpG-ODN 2216, DOTAP alone, or medium alone. Culture supernatants were then collected and analyzed using ELISA for IL-12p40. Data are presented as mean±SEM.

[17] = tested on: TLR7−/− M-CSF-derived macrophages; experiment: IL-12p40 ELISA, M-CSF-derived macrophages, TLR7−/−; type: cell-based, mice; settings: with DOTAP, 24 hours, FIG. 5
Protocol: as §7

[18] = tested on: GM-CSF-derived dendritic cells from wild-type mice; experiment: IL-12p40 ELISA, GM-CSF-derived dendritic cells, wild-type; type: cell-based; settings: with DOTAP, 24 hours, FIG. 5
Protocol: as §7

[19] = tested on: TLR7−/− GM-CSF-derived dendritic cells; experiment: IL-12p40 ELISA, GM-CSF-derived dendritic cells, TLR7−/−; type: cell-based, mice; settings: with DOTAP, 24 hours, FIG. 5
Protocol: as §7

MyD88−/− dendritic cells [20] = experiment: IL-12p40 ELISA, FLT3-L-induced dendritic cells, MyD88−/−; type: cell-based, mice; settings: with DOTAP, 24 hours, FIG. 6
Protocol: (§8) FLT3-L-induced dendritic cells were separately prepared from wild-type, TLR7−/−, and MyD88−/− mice and cultured for 24 hours in the presence of RNA63 PD or RNA63 PTO, each with DOTAP, as in Example 2. After 24 hours incubation, cells were collected and analyzed by ELISA for IL-12p40 and by FACS for CD69.

MyD88−/− dendritic cells [21] = experiment: FACS for CD69, FLT3-L-induced dendritic cells, MyD88−/−; type: cell-based, mice; settings: with DOTAP, 24 hours, FIG. 6
Protocol: as §8

TLR7-deficient mDC = experiment: IL-12p40 production by TLR7-deficient mDC; type: cell-based, murine; settings: TLR7-single deficient mDC
Excerpt: as §1

Substance: 5′-ACCCAUCUAUUAUAUAACUC-3′ (listed as RNA, chemistry not fully specified) [RNA42 PD]
- IFN-α stimulation (murine cells [1]): stimulate
- IL-6 stimulation (murine cells [1]): stimulate
- IL-12p40 stimulation (murine cells [1]): stimulate
- IFN-α stimulation (human PBMCs): no IFN-α
- TNF-α stimulation (human PBMCs): stimulate
- IL-12p40 production (TLR9-deficient mDC): failed to produce IL-12p40

Substance: 5′-ACCCAUCUAUUAUAUAACUC-3′ (listed as RNA, chemistry not fully specified) [RNA42, PTO in the cited result, probably PD in pDC and siRNA tests]
- Recognition by pDC (pDC, wild-type cells): also recognized
- Response of pDC [2]: failed to respond
- Response of pDC [3]: failed to respond
- reduction in IL-12 secretion in mTLR8-specific siRNA-treated cells [4]: 50%
- Activity in murine cells (murine cells [5]): not active

Substance: 5′-CAGGUCUGUGAU-3′ (listed as RNA, chemistry not fully specified) [RNA63]
- RNA63-driven CD69 upregulation [6]: still functional
- RNA63-driven IL-12p40 production [6]: still functional
- CD69 upregulation [7]: failed
- IL-12p40 production [7]: failed to produce IL-12p40
- CD69 upregulation [8]: failed
- IL-12p40 production [8]: failed to produce IL-12p40
- RNA63-induced IL-12p40 production in DCs treated with mTLR8-specific siRNA [9]: strong reduction
- activation markers such as CD40 in DCs treated with mTLR8-specific siRNA ([9]; RNA63 stimulation): downregulation

Substance: 5′-CAGGUCUGUGAU-3′ [RNA63 PD] (one 3' phosphorothioate linkage, chemistry not fully specified)
- IL-12p40 induction [10]: induced IL-12p40
- IL-12p40 induction [11]: induced IL-12p40
- IL-12p40 induction [12]: induced significant amounts
- IL-6 induction [12]: induced significant amounts
- IFN-α induction [12]: induced significant amounts
- Dependence of the amount of IL-12p40 induced on concentration ([13]; varied amounts of ORN with DOTAP): varied in proportion to the concentration
- IFN-α induction [13]: albeit less strongly
- IL-6 induction [13]: albeit less strongly
- IL-12p40 induction [13]: induced IL-112p40
- CD69 induction [14]: induced significant amounts of CD69
- CD69 induction [15]: induced CD69
- IL-12p40 induction [16]: induced significant amounts of IL-12p40
- IL-12p40 induction [17]: induced significant amounts of IL-12p40
- IL-12p40 induction [18]: induced significant amounts of IL-12p40
- IL-12p40 induction [19]: induced significant amounts of IL-12p40
- induction of IL-12p40 (MyD88−/− dendritic cells [20]): absent
- induction of CD69 (MyD88−/− dendritic cells [21]): absent

Substance: 5′-CAGGUCUGUGAU-3′ [RNA63 PTO] (rC*rA*rG*rG*rU*rC*rU*rG*rU*rG*rA*rU) [reference compound]
- IL-12p40 induction [10]: induced IL-12p40
- IL-12p40 induction [11]: not
- IL-12p40 induction [12]: induced significant amounts
- IL-6 induction [12]: induced significant amounts
- IFN-α induction [12]: induced significant amounts
- IFN-α induction [13]: not
- IL-6 induction [13]: not
- IL-12p40 induction [13]: not
- CD69 induction [14]: induced significant amounts of CD69
- CD69 induction [15]: not
- IL-12p40 induction [16]: induced significant amounts of IL-12p40
- IL-12p40 induction [17]: not
- IL-12p40 induction [18]: induced significant amounts of IL-12p40
- IL-12p40 induction [19]: not
- induction of IL-12p40 (MyD88−/− dendritic cells [20]): absent
- induction of CD69 (MyD88−/− dendritic cells [21]): absent

Substance: 5′-GCCCGACAGAAGAGAGACAC-3′ (listed as RNA, chemistry not fully specified) [RNA41 PD]
- IFN-α stimulation (murine cells [1]): stimulate
- IL-6 stimulation (murine cells [1]): stimulate
- IL-12p40 stimulation (murine cells [1]): stimulate
- IFN-α stimulation (human PBMCs): no IFN-α
- TNF-α stimulation (human PBMCs): stimulate
- IL-12p40 production (TLR9-deficient mDC): failed to produce IL-12p40

Substance: 5′-GCCCGACAGAAGAGAGACAC-3′ (listed as RNA, chemistry not fully specified) [RNA41, PTO in the cited result, probably PD in pDC and siRNA tests]
- Recognition by pDC (pDC, wild-type cells): also recognized
- Response of pDC [2]: failed to respond
- Response of pDC [3]: failed to respond
- reduction in IL-12 secretion in mTLR8-specific siRNA-treated cells [4]: 75%
- Activity in murine cells (murine cells [5]): not active

Substance: 5′-GCCCGUCUGUUGUGUGACUC-3′ [RNA40, reference compound]
- IL-12p40 production (TLR9-deficient mDC): induced some IL-12p40
- IL-12p40 production (TLR7-deficient mDC): induced some IL-12p40
- TLR dependence of recognition by pDC (pDC, wild-type cells; GU-rich RNA): TLR7-dependent fashion
- Influence of mTLR8-specific siRNA on stimulation [4]: not influenced
